In patent publication US4740504A, “Antihyperlipidemic amine boranes” (United States Borax & Chemical Corp., priority 1987, dated 1988):

Key:
[1] = system: liver mitochondrial citrate exchange; assay: Enzymatic studies in vitro: liver mitochondrial citrate exchange; format: biochemical; details: at all concentrations tested
[2] = system: sn-glycerol-3 phosphate acyl transferase; assay: Enzymatic studies in vitro: sn-glycerol-3 phosphate acyl transferase; format: biochemical
[3] = system: sn-Glycerol-3-phosphate acyl transferase; assay: Enzyme activity after in vivo dosing: sn-glycerol-3-phosphate acyl transferase; details: 16 mg/kg/day
[4] = system: Hepatic lipoprotein lipase; assay: Enzymatic studies in vitro: hepatic lipoprotein lipase induced by heparin; format: biochemical
acetyl CoA synthetase [5] = target: T1, acetyl CoA synthetase (Mus musculus, UniProt Q9QXG4); assay: Enzyme activity after in vivo dosing: acetyl CoA synthetase; details: 16 mg/kg/day
T1 construct: from tissue

HMG CoA reductase [6] = target: T2, HMG CoA reductase (Mus musculus, UniProt Q01237); assay: Enzyme activity after in vivo dosing: HMG CoA reductase; details: maximal reduction at 4 mg/kg/day
T2 construct: from tissue
T2 sequence (Q01237 1-887): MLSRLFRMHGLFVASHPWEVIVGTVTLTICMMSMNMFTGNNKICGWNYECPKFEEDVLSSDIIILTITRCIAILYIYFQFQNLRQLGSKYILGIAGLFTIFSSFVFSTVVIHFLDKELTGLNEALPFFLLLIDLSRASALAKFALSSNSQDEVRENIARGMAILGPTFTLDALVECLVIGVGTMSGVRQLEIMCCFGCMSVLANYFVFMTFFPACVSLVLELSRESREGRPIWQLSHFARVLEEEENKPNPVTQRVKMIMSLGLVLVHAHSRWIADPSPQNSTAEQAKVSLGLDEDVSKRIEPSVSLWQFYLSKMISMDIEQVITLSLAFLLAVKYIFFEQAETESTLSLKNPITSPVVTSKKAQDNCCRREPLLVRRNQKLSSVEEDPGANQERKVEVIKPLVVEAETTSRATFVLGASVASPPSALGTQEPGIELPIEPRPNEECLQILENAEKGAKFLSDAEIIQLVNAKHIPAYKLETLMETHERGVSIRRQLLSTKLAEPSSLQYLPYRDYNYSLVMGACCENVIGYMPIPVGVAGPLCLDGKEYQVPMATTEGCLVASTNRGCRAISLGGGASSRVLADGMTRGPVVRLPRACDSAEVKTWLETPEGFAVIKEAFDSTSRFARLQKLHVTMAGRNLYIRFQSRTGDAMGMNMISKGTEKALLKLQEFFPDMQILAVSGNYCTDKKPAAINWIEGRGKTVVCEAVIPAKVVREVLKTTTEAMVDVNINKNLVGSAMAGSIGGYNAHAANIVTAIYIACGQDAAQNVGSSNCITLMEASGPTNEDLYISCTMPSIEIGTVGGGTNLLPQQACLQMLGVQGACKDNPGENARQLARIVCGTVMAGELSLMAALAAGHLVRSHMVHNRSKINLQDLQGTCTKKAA

Actyl CoA carboxylase = assay: Enzymatic studies in vitro: acetyl CoA carboxylase; format: biochemical
male CF1 mice = assay: Hypolipidemic activity in CF1 mice, intraperitoneal dosing (serum cholesterol and triglyceride); format: in vivo; details: Table III, 4 mg/kg/day i.p., N = 6
[7] = target: T3, acyl CoA cholesterol acyl transferase (Mus musculus, UniProt O88908); assay: Enzymatic studies in vitro: acyl CoA cholesterol acyl transferase; format: biochemical; details: read-out: reduction of acyl CoA cholesterol acyl transferase activity
T3 construct: from tissue
T3 sequence (O88908 1-525): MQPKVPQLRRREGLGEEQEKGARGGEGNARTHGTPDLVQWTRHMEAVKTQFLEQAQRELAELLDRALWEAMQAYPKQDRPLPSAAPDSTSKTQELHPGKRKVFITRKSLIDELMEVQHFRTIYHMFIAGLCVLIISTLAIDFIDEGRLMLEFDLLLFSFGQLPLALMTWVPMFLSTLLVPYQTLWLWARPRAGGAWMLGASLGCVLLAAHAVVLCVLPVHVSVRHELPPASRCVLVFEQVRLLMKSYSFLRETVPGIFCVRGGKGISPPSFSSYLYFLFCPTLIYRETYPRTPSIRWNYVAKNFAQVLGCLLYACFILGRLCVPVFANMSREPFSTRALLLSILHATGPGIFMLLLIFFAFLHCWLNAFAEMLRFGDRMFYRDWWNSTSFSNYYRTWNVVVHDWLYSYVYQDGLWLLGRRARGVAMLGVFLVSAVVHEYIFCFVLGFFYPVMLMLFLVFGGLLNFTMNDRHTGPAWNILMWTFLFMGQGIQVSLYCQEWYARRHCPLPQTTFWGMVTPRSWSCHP

Toxicity (LD50) = details: in vivo
acetyl CoA synthetase [8] = target: T1, acetyl CoA synthetase; assay: Enzymatic studies in vitro: acetyl CoA synthetase; format: biochemical; details: at all concentrations tested
[9] = system: phosphatidate phosphohydrolase; assay: Enzyme activity after in vivo dosing: phosphatidate phosphohydrolase; details: 16 mg/kg/day
fatty acid synthetase = target: T4, fatty acid synthetase (Mus musculus, UniProt P19096); assay: Enzymatic studies in vitro: fatty acid synthetase; format: biochemical
T4 construct: from tissue

Sprague Dawley male rats = assay: Hypolipidemic activity in Sprague Dawley rats, oral dosing (serum cholesterol and triglyceride); format: in vivo
Procedure: N-n-Octadecyl-N,N-dimethylamine borane was suspended in an aqueous 1% carboxymethylcellulose solution, homogenized, and administered to CF1 male mice (~25 g.) intraperitoneally for 16 days or Sprague Dawley male rats (~350 g.) orally by an intubation needle for 14 days. On days 9 and 14 or 16, blood was obtained by tail vein bleeding and the serum separated by centrifugation for 3 minutes. The serum cholesterol levels were determined by a modification of the Liebermann-Burchard reaction. Serum was also collected on day 14 or 16 and the triglyceride content was determined by a Fisher-Hycel Triglyceride Test Kit.

HMG CoA reductase [10] = assay: Enzymatic studies in vitro: cholesterol synthesis (HMG CoA reductase); format: biochemical; details: 200 μM
[11] = Sprague Dawley rats, oral administration at 20 mg/kg/day
[12] = Table III, 20 mg/kg/day orally, Sprague Dawley rats

T1 sequence (Q9QXG4 whole entry): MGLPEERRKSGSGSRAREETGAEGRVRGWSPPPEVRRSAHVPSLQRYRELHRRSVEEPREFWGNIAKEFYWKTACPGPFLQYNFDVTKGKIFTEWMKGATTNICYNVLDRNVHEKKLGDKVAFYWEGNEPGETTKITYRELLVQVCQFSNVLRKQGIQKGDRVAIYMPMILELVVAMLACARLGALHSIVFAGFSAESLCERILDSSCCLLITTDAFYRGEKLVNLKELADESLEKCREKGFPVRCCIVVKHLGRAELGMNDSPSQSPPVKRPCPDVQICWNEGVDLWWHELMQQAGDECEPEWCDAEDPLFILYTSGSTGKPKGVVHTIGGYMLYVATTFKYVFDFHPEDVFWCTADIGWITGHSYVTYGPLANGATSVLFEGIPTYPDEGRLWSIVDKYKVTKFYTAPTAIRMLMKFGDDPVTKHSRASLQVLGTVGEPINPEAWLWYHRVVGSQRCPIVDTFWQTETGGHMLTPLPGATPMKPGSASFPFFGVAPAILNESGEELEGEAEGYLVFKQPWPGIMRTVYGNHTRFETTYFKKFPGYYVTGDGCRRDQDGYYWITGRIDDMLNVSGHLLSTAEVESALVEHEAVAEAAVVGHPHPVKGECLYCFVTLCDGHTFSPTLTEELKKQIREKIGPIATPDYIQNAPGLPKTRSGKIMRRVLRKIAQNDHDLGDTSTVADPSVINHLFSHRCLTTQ
T4 sequence (P19096 whole entry): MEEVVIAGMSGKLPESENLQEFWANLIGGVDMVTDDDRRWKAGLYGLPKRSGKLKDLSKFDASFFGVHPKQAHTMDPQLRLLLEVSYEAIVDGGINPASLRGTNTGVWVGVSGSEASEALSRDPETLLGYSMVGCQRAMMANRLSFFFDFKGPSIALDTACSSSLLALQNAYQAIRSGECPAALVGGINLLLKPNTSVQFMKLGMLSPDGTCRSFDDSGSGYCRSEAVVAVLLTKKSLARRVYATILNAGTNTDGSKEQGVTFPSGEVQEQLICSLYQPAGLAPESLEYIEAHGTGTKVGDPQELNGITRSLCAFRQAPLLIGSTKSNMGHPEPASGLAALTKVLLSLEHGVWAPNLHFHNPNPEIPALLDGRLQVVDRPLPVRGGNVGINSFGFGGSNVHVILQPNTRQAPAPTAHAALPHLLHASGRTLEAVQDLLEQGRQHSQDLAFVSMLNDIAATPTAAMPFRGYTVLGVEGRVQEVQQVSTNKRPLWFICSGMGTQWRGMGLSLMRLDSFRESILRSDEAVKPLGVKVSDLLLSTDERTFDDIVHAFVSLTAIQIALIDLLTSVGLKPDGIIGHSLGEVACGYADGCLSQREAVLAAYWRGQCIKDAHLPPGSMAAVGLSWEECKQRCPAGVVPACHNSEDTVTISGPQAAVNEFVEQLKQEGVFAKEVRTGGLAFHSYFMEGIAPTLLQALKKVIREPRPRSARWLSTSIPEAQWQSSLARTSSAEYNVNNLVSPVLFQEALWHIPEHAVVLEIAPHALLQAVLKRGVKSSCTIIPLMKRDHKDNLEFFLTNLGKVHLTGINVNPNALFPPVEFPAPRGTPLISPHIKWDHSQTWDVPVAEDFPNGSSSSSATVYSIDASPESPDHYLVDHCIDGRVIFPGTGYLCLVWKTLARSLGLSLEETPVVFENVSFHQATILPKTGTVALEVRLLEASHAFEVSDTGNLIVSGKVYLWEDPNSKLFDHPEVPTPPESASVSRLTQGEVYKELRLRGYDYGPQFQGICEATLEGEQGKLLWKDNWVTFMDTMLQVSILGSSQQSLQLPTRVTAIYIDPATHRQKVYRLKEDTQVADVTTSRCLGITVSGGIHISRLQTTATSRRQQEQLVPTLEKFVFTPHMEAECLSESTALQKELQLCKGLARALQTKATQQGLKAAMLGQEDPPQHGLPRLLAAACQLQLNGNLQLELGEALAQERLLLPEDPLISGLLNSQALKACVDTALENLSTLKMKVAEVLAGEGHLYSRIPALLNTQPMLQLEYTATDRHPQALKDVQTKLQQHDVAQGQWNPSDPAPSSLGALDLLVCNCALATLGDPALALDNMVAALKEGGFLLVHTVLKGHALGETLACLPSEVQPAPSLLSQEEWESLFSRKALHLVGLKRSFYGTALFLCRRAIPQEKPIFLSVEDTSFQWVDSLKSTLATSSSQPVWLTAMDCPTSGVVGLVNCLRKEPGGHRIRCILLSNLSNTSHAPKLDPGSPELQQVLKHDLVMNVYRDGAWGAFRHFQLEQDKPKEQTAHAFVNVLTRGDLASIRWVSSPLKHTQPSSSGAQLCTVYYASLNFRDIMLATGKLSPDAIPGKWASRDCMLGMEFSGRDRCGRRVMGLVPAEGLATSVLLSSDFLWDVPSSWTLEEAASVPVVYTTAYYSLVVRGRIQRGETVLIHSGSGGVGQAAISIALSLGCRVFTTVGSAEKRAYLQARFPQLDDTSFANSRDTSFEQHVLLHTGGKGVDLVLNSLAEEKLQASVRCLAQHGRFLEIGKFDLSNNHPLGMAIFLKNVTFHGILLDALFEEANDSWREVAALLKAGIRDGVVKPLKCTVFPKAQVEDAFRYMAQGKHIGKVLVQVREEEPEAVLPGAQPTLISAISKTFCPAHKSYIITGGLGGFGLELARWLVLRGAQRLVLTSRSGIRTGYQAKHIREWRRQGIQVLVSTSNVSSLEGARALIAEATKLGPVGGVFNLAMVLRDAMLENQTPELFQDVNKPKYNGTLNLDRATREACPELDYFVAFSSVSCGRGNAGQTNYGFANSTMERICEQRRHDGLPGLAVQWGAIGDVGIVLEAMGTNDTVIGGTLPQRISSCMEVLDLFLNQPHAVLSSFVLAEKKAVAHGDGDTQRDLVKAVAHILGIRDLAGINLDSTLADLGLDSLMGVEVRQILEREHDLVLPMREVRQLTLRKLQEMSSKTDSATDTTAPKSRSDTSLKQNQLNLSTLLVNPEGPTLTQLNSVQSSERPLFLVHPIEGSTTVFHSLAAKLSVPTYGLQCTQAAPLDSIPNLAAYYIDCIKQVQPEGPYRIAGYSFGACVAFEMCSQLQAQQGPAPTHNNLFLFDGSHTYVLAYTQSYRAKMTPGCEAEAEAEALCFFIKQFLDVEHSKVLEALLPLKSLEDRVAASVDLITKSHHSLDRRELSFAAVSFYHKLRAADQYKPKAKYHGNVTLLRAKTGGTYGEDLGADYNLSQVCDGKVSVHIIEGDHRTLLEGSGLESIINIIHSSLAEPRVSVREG

## [BH3-][N+](C)(C)CCCCCCCCCCCCCCCCCC [I, N-n-Octadecyl-N,N-Dimethylamine Borane]
[1]
  reduction of liver mitochondrial citrate exchange: more than 50%
[2]
  effect on sn-glycerol-3 phosphate acyl transferase activity: unaffected
[3]
  reduction of sn-glycerol-3-phosphate acyl transferase activity: 33%
[4]; 100 μM
  reduction of hepatic lipoprotein lipase activity: 23%
[4]; 200 μM
  reduction of hepatic lipoprotein lipase activity: 23%
Acetyl CoA synthetase [5]
  reduction of acetyl CoA synthetase: 32%
HMG CoA reductase [6]
  reduction of HMG CoA reductase activity: 34%
Actyl CoA carboxylase
  effect on Actyl CoA carboxylase activity: unaffected
Male CF1 mice
  Serum Triglyceride Day 9 (X ± SD): 80 ± 9% of Control
[7]; 100 μM
  inhibition at 100 µM: 41%
[7]; 200 μM
  inhibition at 200 µM: 55%
Toxicity (LD50)
  LD50: > 500 mg/kg
Acetyl CoA synthetase [8]
  reduction of acetyl CoA synthetase activity: more than 50%
[9]
  reduction of phosphatidate phosphohydrolase activity: 40%
Fatty acid synthetase
  effect on fatty acid synthetase activity: unaffected
Sprague Dawley male rats; [11]
  lowering of serum triglyceride levels: 35%
  reduction of serum cholesterol levels: 54%
Sprague Dawley male rats; [12]
  Serum Cholesterol Day 9 (X ± SD): 82 ± 8% of Control
  Serum Cholesterol Day 14 (X ± SD): 46 ± 5% of Control
  Serum Triglyceride Day 9 (X ± SD): 82 ± 7% of Control
  Serum Triglyceride Day 14 (X ± SD): 65 ± 6% of Control
Sprague Dawley male rats; in rats
  optimum dosage: about 20 mg./kg.
HMG CoA reductase [10]
  reduction of cholesterol synthesis (HMG CoA reductase): 38%
